Measurements published in paper PMC4737552 (Neuropharmacology, 2015).
Like-named read-outs stand apart in the source and are kept apart here.

Key:
[1] = test system: αxβ2γ2 GABAA receptors, where x = α subunit 1–6; assay: Whole-cell patch clamp, direct gating across αxβ2γ2 GABAA receptors; format: cell-based, human; conditions: range over α1–α6 β2γ2 receptors
[2] = case reports; ref McIntyre et al., 2012; Robertson and Marinetti, 2003; cited from earlier work
[3] = target: human α3β2γ2 GABAA receptor (Homo sapiens, UniProt P18507+P34903+P47870, DEL377-384, form not given); assay: Whole-cell patch clamp, HEK293 cells expressing α3β2γ2 GABAARs; format: cell-based
[4] = single dose of 350 mg; ref Littrell et al., 1993; cited from earlier work
rat α1β3 GABAA receptor [5] = target: T1, rat α1β3 GABAA receptor (Rattus norvegicus, UniProt P62813+P63079)
[6] = target: T2, human α1β2 GABAA receptor (Homo sapiens, UniProt P14867+P47870); format: cell-based
T2 sequence (P14867 28-456): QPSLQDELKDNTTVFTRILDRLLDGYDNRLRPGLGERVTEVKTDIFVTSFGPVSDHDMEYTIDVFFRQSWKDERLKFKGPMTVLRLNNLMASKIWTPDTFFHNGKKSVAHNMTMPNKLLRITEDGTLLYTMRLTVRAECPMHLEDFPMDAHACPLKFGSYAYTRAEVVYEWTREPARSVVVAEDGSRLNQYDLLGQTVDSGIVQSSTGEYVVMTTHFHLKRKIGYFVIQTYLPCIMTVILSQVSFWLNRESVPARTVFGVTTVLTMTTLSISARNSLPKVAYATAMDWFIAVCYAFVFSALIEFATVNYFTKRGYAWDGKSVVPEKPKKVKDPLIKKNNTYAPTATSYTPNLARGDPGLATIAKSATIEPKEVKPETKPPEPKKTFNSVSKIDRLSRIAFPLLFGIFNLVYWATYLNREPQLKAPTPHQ
T2 sequence (P47870 25-512 limits assumed): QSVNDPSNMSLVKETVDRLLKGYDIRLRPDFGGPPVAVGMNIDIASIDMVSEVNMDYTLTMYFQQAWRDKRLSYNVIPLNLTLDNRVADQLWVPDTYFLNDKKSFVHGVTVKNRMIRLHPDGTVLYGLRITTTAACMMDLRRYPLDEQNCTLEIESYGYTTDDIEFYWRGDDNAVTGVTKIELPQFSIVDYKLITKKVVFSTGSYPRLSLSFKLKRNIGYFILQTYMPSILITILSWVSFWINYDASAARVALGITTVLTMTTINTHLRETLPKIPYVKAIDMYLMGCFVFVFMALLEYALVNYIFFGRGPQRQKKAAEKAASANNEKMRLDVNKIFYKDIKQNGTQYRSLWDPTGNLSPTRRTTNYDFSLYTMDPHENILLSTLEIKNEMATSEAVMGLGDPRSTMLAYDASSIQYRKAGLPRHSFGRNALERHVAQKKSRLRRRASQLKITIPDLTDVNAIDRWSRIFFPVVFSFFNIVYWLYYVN

rat α1β2 GABAA receptor = rat α1β2 GABAA receptor (Rattus norvegicus, UniProt P62813+P63138); assay: Whole-cell patch clamp, HEK293 cells expressing rat α1β2 GABAARs; format: cell-based
[7] = target: human α1β1γ2 GABAA receptor (Homo sapiens, UniProt P14867+P18505+P18507, DEL377-384, form not given); assay: Whole-cell patch clamp, HEK293 cells expressing α1β1γ2 GABAARs; format: cell-based
rat α1β3δ GABAA receptor [8] = target: T3, rat α1β3δ GABAA receptor (Rattus norvegicus, UniProt P18506+P62813+P63079); conditions: for Potentiation of saturating (maximal) GABA currents: sub-gating concentration of drug
rat α1β3δ GABAA receptor [9] = target: T3, rat α1β3δ GABAA receptor; assay: cell-based
[10] = target: human α6β2γ2 GABAA receptor (Homo sapiens, UniProt P18507+P47870+Q16445, DEL377-384, form not given); assay: Whole-cell patch clamp, HEK293 cells expressing α6β2γ2 GABAARs; format: cell-based
[11] = target: human α1β2γ2 GABAA receptor (Homo sapiens, UniProt P14867+P18507+P47870, DEL377-384, form not given); format: cell-based; conditions: for Enhancement of GABA current by carisoprodol, % of control: 100 µM CSP
[12] = target: human α5β2γ2 GABAA receptor (Homo sapiens, UniProt P18507+P31644+P47870, DEL377-384, form not given); assay: Whole-cell patch clamp, HEK293 cells expressing α5β2γ2 GABAARs; format: cell-based
[13] = target: rat α1β3γ2 GABAA receptor (Rattus norvegicus, UniProt P18508+P62813+P63079); assay: Whole-cell patch clamp, HEK293 cells expressing rat α1β3γ2 GABAARs; format: cell-based
[14] = target: human α4β2γ2 GABAA receptor (Homo sapiens, UniProt P18507+P47870+P48169, DEL377-384, form not given); assay: Whole-cell patch clamp, HEK293 cells expressing α4β2γ2 GABAARs; format: cell-based
[15] = target: human α2β2γ2 GABAA receptor (Homo sapiens, UniProt P18507+P47869+P47870, DEL377-384, form not given); assay: Whole-cell patch clamp, HEK293 cells expressing α2β2γ2 GABAARs; format: cell-based
rat α1β3 GABAA receptor [16] = target: T1, rat α1β3 GABAA receptor; assay: cell-based
rat α4β3δ GABAA receptor = rat α4β3δ GABAA receptor (Rattus norvegicus, UniProt P18506+P28471+P63079); assay: Whole-cell patch clamp, HEK293 cells expressing extrasynaptic rat α4β3δ GABAARs; format: cell-based; conditions: for Potentiation of saturating (maximal) GABA currents: sub-gating concentration of drug
[17] = maximum current by carisoprodol plus GABA (EC20) normalized to GABA (EC20) currents
[18] = normalized to maximum GABA gated currents
[19] = read-out: Carisoprodol direct gating EC50, relative to maximum current elicited by carisoprodol
[20] = read-out: EC50 for allosteric modulation by carisoprodol, in the presence of GABA (EC20)

Chain of rat α4β3δ GABAA receptor (P28471 36-552): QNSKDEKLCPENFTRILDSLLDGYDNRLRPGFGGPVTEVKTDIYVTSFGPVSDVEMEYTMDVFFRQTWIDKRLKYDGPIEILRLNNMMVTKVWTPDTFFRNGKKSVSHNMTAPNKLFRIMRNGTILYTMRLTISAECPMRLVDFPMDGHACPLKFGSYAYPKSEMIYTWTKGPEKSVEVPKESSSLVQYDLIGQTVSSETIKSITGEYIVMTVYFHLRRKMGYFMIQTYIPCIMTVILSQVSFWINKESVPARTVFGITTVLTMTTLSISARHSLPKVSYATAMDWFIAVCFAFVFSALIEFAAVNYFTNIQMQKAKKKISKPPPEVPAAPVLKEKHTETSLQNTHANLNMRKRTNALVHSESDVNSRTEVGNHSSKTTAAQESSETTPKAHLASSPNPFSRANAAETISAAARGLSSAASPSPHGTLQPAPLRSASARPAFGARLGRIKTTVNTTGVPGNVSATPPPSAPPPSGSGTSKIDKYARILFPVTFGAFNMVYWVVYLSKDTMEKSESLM
Chain of rat α4β3δ GABAA receptor (P63079 26-473): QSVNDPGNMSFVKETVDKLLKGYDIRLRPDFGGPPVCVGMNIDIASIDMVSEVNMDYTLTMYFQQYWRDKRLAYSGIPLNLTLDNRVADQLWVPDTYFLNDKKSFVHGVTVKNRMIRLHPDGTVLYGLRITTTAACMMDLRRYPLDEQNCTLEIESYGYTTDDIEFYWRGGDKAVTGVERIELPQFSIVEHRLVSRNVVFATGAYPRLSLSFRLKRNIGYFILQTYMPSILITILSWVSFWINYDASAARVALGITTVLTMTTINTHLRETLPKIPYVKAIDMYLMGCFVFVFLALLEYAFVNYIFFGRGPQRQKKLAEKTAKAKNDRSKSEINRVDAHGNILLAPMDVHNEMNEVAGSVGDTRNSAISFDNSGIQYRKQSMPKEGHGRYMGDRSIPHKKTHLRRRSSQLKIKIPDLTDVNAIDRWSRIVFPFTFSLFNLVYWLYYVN
Chain of rat α4β3δ GABAA receptor (P18506 17-449 limits assumed): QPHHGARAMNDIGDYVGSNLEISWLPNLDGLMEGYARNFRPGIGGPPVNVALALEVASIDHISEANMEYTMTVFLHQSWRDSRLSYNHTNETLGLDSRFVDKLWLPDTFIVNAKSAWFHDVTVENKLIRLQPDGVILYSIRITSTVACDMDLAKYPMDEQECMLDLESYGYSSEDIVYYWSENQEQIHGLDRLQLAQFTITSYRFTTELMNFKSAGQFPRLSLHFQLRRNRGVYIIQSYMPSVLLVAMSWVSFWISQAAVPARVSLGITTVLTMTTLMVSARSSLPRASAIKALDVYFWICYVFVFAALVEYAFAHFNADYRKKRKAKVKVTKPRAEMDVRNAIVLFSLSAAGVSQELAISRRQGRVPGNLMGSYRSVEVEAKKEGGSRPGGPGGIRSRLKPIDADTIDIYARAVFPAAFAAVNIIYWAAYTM
Chain of rat α1β2 GABAA receptor (P62813 28-455): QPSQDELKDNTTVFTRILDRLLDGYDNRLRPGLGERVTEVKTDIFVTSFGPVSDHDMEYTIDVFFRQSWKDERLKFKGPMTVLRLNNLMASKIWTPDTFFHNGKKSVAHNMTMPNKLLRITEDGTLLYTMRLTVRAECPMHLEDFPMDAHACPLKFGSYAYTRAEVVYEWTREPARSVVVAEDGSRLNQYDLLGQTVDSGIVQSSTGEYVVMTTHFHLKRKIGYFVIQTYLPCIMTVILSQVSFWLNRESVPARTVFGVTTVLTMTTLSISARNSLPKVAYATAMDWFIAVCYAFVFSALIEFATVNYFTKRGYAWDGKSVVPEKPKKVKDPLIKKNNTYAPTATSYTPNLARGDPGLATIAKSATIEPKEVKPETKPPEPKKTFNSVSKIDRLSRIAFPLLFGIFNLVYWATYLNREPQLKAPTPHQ
Chain of rat α1β2 GABAA receptor (P63138 25-474 limits assumed): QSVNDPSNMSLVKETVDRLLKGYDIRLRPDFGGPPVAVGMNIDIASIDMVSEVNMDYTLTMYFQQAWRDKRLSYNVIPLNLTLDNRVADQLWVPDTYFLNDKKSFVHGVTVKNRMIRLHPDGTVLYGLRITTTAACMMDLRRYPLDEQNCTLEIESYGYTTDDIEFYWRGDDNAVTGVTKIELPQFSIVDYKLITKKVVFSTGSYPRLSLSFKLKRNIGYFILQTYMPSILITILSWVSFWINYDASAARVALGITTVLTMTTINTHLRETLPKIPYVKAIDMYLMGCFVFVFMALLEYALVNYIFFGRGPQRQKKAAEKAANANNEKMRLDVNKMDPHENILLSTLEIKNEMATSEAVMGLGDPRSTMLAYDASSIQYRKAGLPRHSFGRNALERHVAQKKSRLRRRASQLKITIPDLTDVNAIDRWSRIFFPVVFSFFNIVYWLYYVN
T3 sequence (P62813 28-455): as the sequence (P62813 28-455) above
T3 sequence (P63079 26-473): as the sequence (P63079 26-473) above
T3 sequence (P18506 17-449 limits assumed): as the sequence (P18506 17-449 limits assumed) above
T1 sequence (P62813 28-455): as the sequence (P62813 28-455) above
T1 sequence (P63079 26-473): as the sequence (P63079 26-473) above

## CCCC(C)(COC(N)=O)COC(=O)NC(C)C (stereo not shown) [carisoprodol, Carisoprodol]
[1]
  Maximal carisoprodol-gated current, efficacy as % of maximal GABA-gated current: 13–43%
[2]
  Fatal blood or plasma concentration: ≥ 140 µM
[3]; [17]
  Efficacy of allosteric modulation by carisoprodol: 242.7 ± 35.1 %
[3]; [18]
  Carisoprodol direct gating Efficacy: 13.4 ± 1.4 %
[3]; [19]
  EC50: 1870 ± 92.4 µM
[3]; [20]
  EC50: 63.7 ± 16.5 µM
[4]
  Onset of effects after administration: ≤ 30 min
  Plasma concentrations: 4000 to 7000 ng/mL
  Time in which plasma concentrations are reached: 2 to 4 h
Rat α1β3 GABAA receptor [5]; rat α1β3, maximum current by carisoprodol plus GABA (EC20) normalized to GABA (EC20) currents
  CSP modulation Efficacy: 234.5 ± 18.9
Rat α1β3 GABAA receptor [5]; rat α1β3, normalized to maximum GABA gated currents
  CSP gating Efficacy: 50.8 ± 6.24
Rat α1β3 GABAA receptor [5]; α1β3, sub-gating concentration of drug
  Potentiation of saturating (maximal) GABA currents: not seen
[6]; Carisoprodol direct gating EC50, α1β2, relative to maximum current elicited by carisoprodol
  EC50: 679 ± 24.3 µM
[6]; EC50 for allosteric modulation by carisoprodol, α1β2, in the presence of GABA (EC20)
  EC50: 87.4 ± 16.4 µM
[6]; α1β2, maximum current by carisoprodol plus GABA (EC20) normalized to GABA (EC20) currents
  Efficacy of allosteric modulation by carisoprodol: 346.7 ± 67.6%
[6]; α1β2, normalized to maximum GABA gated currents
  Carisoprodol direct gating Efficacy: 45.9 ±3%
Rat α1β2 GABAA receptor; CSP gating EC50, rat α1β2, relative to maximum current elicited by carisoprodol
  EC50: 670 ± 22.2 µM
Rat α1β2 GABAA receptor; CSP modulation EC50, rat α1β2, in the presence of GABA (EC20)
  EC50: 120 ± 10.5 µM
Rat α1β2 GABAA receptor; rat α1β2, maximum current by carisoprodol plus GABA (EC20) normalized to GABA (EC20) currents
  CSP modulation Efficacy: 442.2 ± 27.7
Rat α1β2 GABAA receptor; rat α1β2, normalized to maximum GABA gated currents
  CSP gating Efficacy: 44.6 ± 4.85
[7]; [17]
  Efficacy of allosteric modulation by carisoprodol: 225.6 ± 14.6 %
[7]; [18]
  Carisoprodol direct gating Efficacy: 69.7 ± 5.4 %
[7]; [19]
  EC50: 729 ± 58.1 µM
[7]; [20]
  EC50: 33.1 ± 4 µM
Rat α1β3δ GABAA receptor [8]; rat α1β3δ, maximum current by carisoprodol plus GABA (EC20) normalized to GABA (EC20) currents
  CSP modulation Efficacy: 241.5 ± 25.1
Rat α1β3δ GABAA receptor [8]; rat α1β3δ, normalized to maximum GABA gated currents
  CSP gating Efficacy: 128.7 ± 12.3
Rat α1β3δ GABAA receptor [8]; α1β3δ
  Carisoprodol direct gating efficacy relative to THIP: roughly 90%
  Potentiation of saturating (maximal) GABA currents: significant potentiation of maximal GABA currents
Rat α1β3δ GABAA receptor [9]; CSP gating EC50, rat α1β3δ, relative to maximum current elicited by carisoprodol
  EC50: 801 ± 24.2 µM
Rat α1β3δ GABAA receptor [9]; CSP modulation EC50, rat α1β3δ, in the presence of GABA (EC20)
  EC50: 109 ± 11.4 µM
[10]; [17]
  Efficacy of allosteric modulation by carisoprodol: 232.6 ± 26.9 %
[10]; [18]
  Carisoprodol direct gating Efficacy: 36.8 ± 4.7%
[10]; [19]
  EC50: 294 ± 28.1 µM
[10]; [20]
  EC50: 79.8 ± 13.8 µM
[11]; +60 mV
  Enhancement of GABA current by carisoprodol, % of control: 204.8 ± 5.3%
[11]; −60 mV
  Enhancement of GABA current by carisoprodol, % of control: 285.3 ± 17.7%
[11]; 100 µM carisoprodol
  Mean carisoprodol direct gating effect, % of maximal GABA-gated current: 2.8%
[11]; 1 mM CSP, −60 mV vs +60 mV
  Voltage-dependence of direct gating effect: not impacted by membrane voltage
[11]; [17]
  Efficacy of allosteric modulation by carisoprodol: 474.7 ± 53.5%
[11]; [19]
  EC50: 686 ± 30.4 µM
[11]; [20]
  EC50: 88.2 ± 19.9 µM
[12]; [17]
  Efficacy of allosteric modulation by carisoprodol: 247.6 ± 23.0 %
[12]; [18]
  Carisoprodol direct gating Efficacy: 37.7 ± 3.5%
[12]; [19]
  EC50: 835 ± 60.3 µM
[12]; [20]
  EC50: 90.8 ± 14.7 µM
[13]; CSP modulation EC50, rat α1β3γ2, in the presence of GABA (EC20)
  EC50: 131 ± 12.4 µM
[13]; rat α1β3γ2, normalized to maximum GABA gated currents
  CSP gating Efficacy: 44.8 ± 3.23
[13]; α1β3γ2, sub-gating concentration of drug
  Potentiation of saturating (maximal) GABA currents: not seen
[14]; [17]
  Efficacy of allosteric modulation by carisoprodol: 240.0 ± 16.4 %
[14]; [18]
  Carisoprodol direct gating Efficacy: 37.3 ± 5.0%
[14]; [19]
  EC50: 758 ± 61.3 µM
[14]; [20]
  EC50: 72.3 ± 10.1 µM
[15]; [17]
  Efficacy of allosteric modulation by carisoprodol: 198.5 ± 9.5 %
[15]; [18]
  Carisoprodol direct gating Efficacy: 30.1 ± 1.4%
[15]; [19]
  EC50: 829 ± 50.2 µM
[15]; [20]
  EC50: 64.9 ± 19.1 µM
Rat α1β3 GABAA receptor [16]; CSP gating EC50, rat α1β3, relative to maximum current elicited by carisoprodol
  EC50: 606 ± 25.3 µM
Rat α1β3 GABAA receptor [16]; CSP modulation EC50, rat α1β3, in the presence of GABA (EC20)
  EC50: 135 ± 12.8 µM
Rat α4β3δ GABAA receptor
  Potentiation of saturating (maximal) GABA currents: significant potentiation of maximal GABA currents

## NCCCC(=O)O [GABA, γ-aminobutyric acid]
[3]
  GABA Hill Coefficient: 1.04 ± 0.06
[6]; α1β2
  GABA Hill Coefficient: 1.32 ± 0.11
[7]
  GABA Hill Coefficient: 1.17 ± 0.09
[10]
  GABA Hill Coefficient: 1.02 ± 0.12
[11]
  GABA Hill Coefficient: 1.32 ± 0.03
[11]; lower concentrations of GABA
  GABA current amplitude at +60 mV as % of that recorded at −60 mV (outward rectification): 110%
[15]
  GABA Hill Coefficient: 1.09 ± 0.12

## Oc1noc2c1CCNC2 [THIP, 4,5,6,7-tetrahydroisoxazolo(5,4-c)pyridin-3-ol]
Rat α1β3δ GABAA receptor [8]; α1β3δ
  THIP-gated currents, % of the amplitude of currents obtained with saturating GABA: 135.6 ± 7.2%
Rat α4β3δ GABAA receptor
  THIP-gated currents, % of the amplitude of currents obtained with saturating GABA: 153.4 ± 10.7%

## CCCC(C)C1(CC)C(=O)NC(=O)NC1=O (stereo not shown) [pentobarbital]
Rat α1β3δ GABAA receptor [8]; α1β3δ
  Potentiation of saturating (maximal) GABA currents: potentiation of saturating GABA currents
Rat α4β3δ GABAA receptor
  Potentiation of saturating (maximal) GABA currents: potentiation of saturating GABA currents
